Patent US9278958B2, “Anti-cancer compounds” (KATHOLIEKE UNIVERSITEIT LEUVEN, priority 2012, dated 2016)
Like-named read-outs stand apart in the source and are kept apart here.

Tests used:
MT-2 cells = assay: Cytostatic assay, MT-2; assay type: cell-based; conditions: Homo sapiens, MT2; Table 2
Summary of the method: (§1)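 Incubation of 5-7.5×10^4 cells per well with compound ran for 48–96 h (depending on the line) at 37° C; cells were then counted with a Coulter instrument.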

[1] = tested on: HeLa cervix carcinoma cells; assay: Cytostatic assay, HeLa; assay type: cell-based, human; conditions: Homo sapiens; Table 3; read-out: Cytostatic activity (μM) Hela
Summary of the method: as §1

HepG2C3A hepatoma cells = assay: Cytostatic assay, HepG2C3A; assay type: cell-based; conditions: Homo sapiens, HepG2/C3A; Table 4
Summary of the method: as §1

[2] = tested on: RNA synthesis in CEM cells; assay: Antimetabolic activity assay, [5-3H]uridine incorporation (RNA synthesis), CEM; assay type: cell-based; conditions: Homo sapiens, CCRF-CEM, incorporation into TCA-insoluble material
Summary of the method: (§2)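 Each well held 10^5 CEM cells, 1 μCi of one labelled precursor and compound over a 5-fold dilution range. Following a 20 hrs incubation at 37° C, acid-insoluble radioactivity retained on glass fiber filters was determined.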

[3] = tested on: Daudi, human B-lymphoma cells; assay: Cytostatic assay, Daudi; assay type: cell-based; conditions: Table 2
Method: (§3) To each well of a 96-well microtiter plate were added 5-7.5×10^4 cells and a given amount of the test compound. The cells were allowed to proliferate for 48 h to 96 h (depending on the nature of the cell line) at 37° C. in a humidified CO2-controlled atmosphere. At the end of the incubation period, the cells were counted in a Coulter Counter (Coulter Electronics Ltd, Harpenden Herts, United Kingdom).

[4] = tested on: Caki-2 kidney carcinoma cells; assay: Cytostatic assay, Caki-2; assay type: cell-based; conditions: Homo sapiens, Table 3
Summary of the method: as §1

[5] = tested on: protein synthesis in CEM cells; assay: Antimetabolic activity assay, [4,5-3H]leucine incorporation (protein synthesis), CEM; assay type: cell-based; conditions: Homo sapiens, CCRF-CEM, incorporation into TCA-insoluble material
Summary of the method: as §2

[6] = tested on: PC-3 (UZ) prostate cancer cells; assay: Cytostatic assay, PC-3 (UZ); assay type: cell-based; conditions: Table 4
Summary of the method: as §1

[7] = tested on: 22Rv1 (UZ) prostate cancer cells; assay: Cytostatic assay, 22Rv1 (UZ); assay type: cell-based; conditions: Homo sapiens, Table 4
Summary of the method: as §1

[8] = tested on: LNCaP (UZ) prostate cancer cells; assay: Cytostatic assay, LNCaP (UZ); assay type: cell-based; conditions: Homo sapiens, Table 4
Summary of the method: as §1

Huh-7 hepatoma cells = assay: Cytostatic assay, Huh-7; assay type: cell-based; conditions: Homo sapiens, Table 4
Summary of the method: as §1

[9] = tested on: HL60, human leukemia cells; assay: Cytostatic assay, HL-60; assay type: cell-based; conditions: Table 2
Summary of the method: as §1

[10] = tested on: HEL embryonic lung fibroblast cells; assay: Cytostatic assay, HEL; assay type: cell-based; conditions: Homo sapiens, Table 3
Summary of the method: as §1

[11] = tested on: FM3A mammary carcinoma cells; assay: Cytostatic assay, FM3A; assay type: cell-based, murine; conditions: Mus musculus, Table 3
Summary of the method: as §1

BPH-1 (UZ) = assay: Cytostatic assay, BPH-1 (UZ); assay type: cell-based; conditions: Homo sapiens, Table 4
Summary of the method: as §1

C8166 cells = assay: Cytostatic assay, C8166; assay type: cell-based; conditions: Homo sapiens, Table 2
Summary of the method: as §1

[12] = tested on: PNT1A (UZ) prostate cells; assay: Cytostatic assay, PNT1A (UZ); assay type: cell-based; conditions: Homo sapiens, Table 4
Summary of the method: as §1

[13] = tested on: protein synthesis in Raji cells; assay: Antimetabolic activity assay, [4,5-3H]leucine incorporation (protein synthesis), Raji; assay type: cell-based; conditions: Homo sapiens, incorporation into TCA-insoluble material
Molt4/C8 cells = assay: Cytostatic assay, Molt4/C8; assay type: cell-based; conditions: Table 2
Summary of the method: as §1

[14] = tested on: Caki-1 kidney carcinoma cells; assay: Cytostatic assay, Caki-1; assay type: cell-based; conditions: Homo sapiens, Table 3
Summary of the method: as §1

[15] = tested on: 293T embryonic kidney cells; assay: Cytostatic assay, 293T; assay type: cell-based; conditions: Homo sapiens, HEK-293T; Table 3
Summary of the method: as §1

[16] = tested on: Raji, human B-lymphoma cells; assay: Cytostatic assay, Raji; assay type: cell-based; conditions: Table 2
Summary of the method: as §1

[17] = tested on: U937, human monocytic cells; assay: Cytostatic assay, U937; assay type: cell-based; conditions: U-937, Table 2
Summary of the method: as §1

[18] = tested on: U87 CD4+/CXCR4+/CCR5+ glioma cells; assay: Cytostatic assay, U87 CD4+/CXCR4+/CCR5+; assay type: cell-based; conditions: Homo sapiens, Glioma cell; Table 3
Method: as §3

[19] = tested on: BAEC aortic endothelial cells; assay: Cytostatic assay, BAEC; assay type: cell-based, bovine; conditions: Bos taurus, Table 3
Summary of the method: as §1

[20] = tested on: DU145 (UZ) prostate cancer cells; assay: Cytostatic assay, DU145 (UZ); assay type: cell-based; conditions: Homo sapiens, DU-145; Table 4
Summary of the method: as §1

[21] = tested on: MCF-7 mammary carcinoma cells; assay: Cytostatic assay, MCF-7; assay type: cell-based; conditions: Homo sapiens, MCF7; Table 3
Summary of the method: as §1

[22] = tested on: THP-1, human monocytic cells; assay: Cytostatic assay, THP-1; assay type: cell-based; conditions: Table 2
Summary of the method: as §1

[23] = tested on: DNA synthesis in Raji cells; assay: Antimetabolic activity assay, [CH3-3H]dThd incorporation (DNA synthesis), Raji; assay type: cell-based; conditions: Homo sapiens, incorporation into TCA-insoluble material
MT-4 cells = assay: Cytostatic assay, MT-4; assay type: cell-based; conditions: Homo sapiens, MT4; Table 2
Summary of the method: as §1

PLC/PRF/5 hepatoma cells = assay: Cytostatic assay, PLC/PRF/5; assay type: cell-based; conditions: Homo sapiens, Table 4
Summary of the method: as §1

[24] = tested on: OST TK- osteosarcoma cells; assay: Cytostatic assay, OST TK-; assay type: cell-based; conditions: Homo sapiens; Table 3
Summary of the method: as §1

[25] = tested on: HT29 colorectal carcinoma cells; assay: Cytostatic assay, HT29; assay type: cell-based; conditions: Homo sapiens, HT-29; Table 3
Summary of the method: as §1

L1210 cells = assay: Cytostatic assay, L1210; assay type: cell-based; conditions: Mus musculus, Table 2
Summary of the method: as §1

[26] = tested on: PC3 (rega) prostate cancer cells; assay: Cytostatic assay, PC3 (rega); assay type: cell-based; conditions: Table 4
Summary of the method: as §1

[27] = tested on: DNA synthesis in CEM cells; assay: Antimetabolic activity assay, [CH3-3H]dThd incorporation (DNA synthesis), CEM; assay type: cell-based; conditions: Homo sapiens, CCRF-CEM, incorporation into TCA-insoluble material
Summary of the method: as §2

CEM cells = assay: Cytostatic assay, CEM; assay type: cell-based; conditions: Homo sapiens, CCRF-CEM
Summary of the method: as §1

[28] = tested on: HOS CD4+ osteosarcoma cells; assay: Cytostatic assay, HOS CD4+; assay type: cell-based; conditions: Homo sapiens; Table 3
Method: as §3

U87 glioma cells = assay: Cytostatic assay, U87; assay type: cell-based; conditions: Homo sapiens, U-87 MG; Table 3
Summary of the method: as §1

[29] = tested on: RNA synthesis in Raji cells; assay: Antimetabolic activity assay, [5-3H]uridine incorporation (RNA synthesis), Raji; assay type: cell-based; conditions: Homo sapiens, incorporation into TCA-insoluble material
Sup T1 cells = assay: Cytostatic assay, Sup T1; assay type: cell-based; conditions: Homo sapiens, Table 2, read-out: Cytostatic activity (μM) Sup T 1
Summary of the method: as §1

HUT-78 cells = assay: Cytostatic assay, HUT-78; assay type: cell-based; conditions: Homo sapiens, HuT78; Table 2
Summary of the method: as §1

[30] = tested on: broad variety of tumor cell lines; assay: Cytostatic assays, summary over the panel of cell lines (Tables 2-4); assay type: cell-based
Method: as §3

Question: With `COC(=O)c1cc(CCc2ccccc2)sc1N` [TR575, 2-Amino-5-phenethyl-thiophene-3-carboxylic acid methyl ester] as the molecule, how does the IC50 (MT-2 cells) read?
Answer: Its IC50 is 0.79 ± 0.092 µM.

Question: And the IC50 [1]?
Answer: Its IC50 is 38 ± 2.8 µM.

Question: What about the IC50 (HepG2C3A hepatoma cells) of the same molecule?
Answer: The IC50 was 10 ± 5.2 µM.

Question: And the IC50 [2]?
Answer: The IC50 was 0.96 ± 0.37 µM.

Question: What about the IC50 [3] of the same molecule?
Answer: Its IC50 is 38 ± 2.1 µM.

Question: And the IC50 [4]?
Answer: Its IC50 is 43 ± 4.2 µM.

Question: What about the IC50 [5] of the same molecule?
Answer: Its IC50 is 0.61 ± 0.04 µM.

Question: And the IC50 [6]?
Answer: The IC50 was 0.51 ± 0.064 µM.

Question: What about the IC50 [7] of the same molecule?
Answer: The IC50 was 9.1 ± 0.35 µM.

Question: And the IC50 [8]?
Answer: The IC50 was 0.35 ± 0.014 µM.

Question: What about the IC50 (Huh-7 hepatoma cells) of the same molecule?
Answer: Its IC50 is 1.7 ± 0.21 µM.

Question: What about the IC50 [9] of the same molecule?
Answer: The IC50 was 5.7 ± 7.2 µM.

Question: And the IC50 [10]?
Answer: Its IC50 is 38 ± 12 µM.

Question: What about the IC50 [11] of the same molecule?
Answer: The IC50 was 67 ± 18 µM.

Question: And the IC50 (BPH-1 (UZ))?
Answer: Its IC50 is 52 ± 1.4 µM.

Question: What about the IC50 (C8166 cells) of the same molecule?
Answer: The IC50 was 2.2 µM.

Question: What about the IC50 [12] of the same molecule?
Answer: The IC50 was 39 ± 3.5 µM.

Question: And the IC50 [13]?
Answer: Its IC50 is 84 ± 6 µM.

Question: And the IC50 (Molt4/C8 cells)?
Answer: Its IC50 is 1.2 ± 0.6 µM.

Question: What about the IC50 [14] of the same molecule?
Answer: Its IC50 is 6.5 ± 3.5 µM.

Question: And the IC50 [15]?
Answer: The IC50 was 45 ± 16 µM.

Question: What about the IC50 [16] of the same molecule?
Answer: The IC50 was 50 ± 3.5 µM.

Question: And the IC50 [17]?
Answer: The IC50 was 46 ± 7.1 µM.

Question: And the IC50 [18]?
Answer: The IC50 was 73 ± 3.5 µM.

Question: What about the IC50 [19] of the same molecule?
Answer: Its IC50 is 26 ± 4.2 µM.

Question: And the IC50 [20]?
Answer: Its IC50 is 5.4 ± 0.96 µM.

Question: What about the IC50 [21] of the same molecule?
Answer: The IC50 was 36 ± 9.2 µM.

Question: What about the IC50 [22] of the same molecule?
Answer: The IC50 was 38 ± 6.4 µM.

Question: And the IC50 [23]?
Answer: Its IC50 is ≥ 100 µM.

Question: What about the IC50 (MT-4 cells) of the same molecule?
Answer: The IC50 was 27 ± 0.71 µM.

Question: What about the IC50 (PLC/PRF/5 hepatoma cells) of the same molecule?
Answer: Its IC50 is 44 ± 2.1 µM.

Question: What about the IC50 [24] of the same molecule?
Answer: Its IC50 is 9.8 ± 7.4 µM.

Question: And the IC50 [25]?
Answer: Its IC50 is 41 ± 2.8 µM.

Question: And the IC50 (L1210 cells)?
Answer: Its IC50 is 25 µM.

Question: What about the IC50 [26] of the same molecule?
Answer: Its IC50 is 0.24 ± 0.19 µM.

Question: What about the IC50 [27] of the same molecule?
Answer: The IC50 was 3.1 ± 1 µM.

Question: And the IC50 (CEM cells; Table 1a, read-out: IC50 μM (CEM))?
Answer: Its IC50 is 1.5 µM.

Question: And the IC50 (CEM cells; Table 2, read-out: Cytostatic activity (μM) CEM)?
Answer: The IC50 was 1.5 ± 1.3 µM.

Question: What about the IC50 [28] of the same molecule?
Answer: The IC50 was 48 ± 1.4 µM.

Question: What about the IC50 (U87 glioma cells) of the same molecule?
Answer: The IC50 was 50 ± 3.5 µM.

Question: What about the IC50 [29] of the same molecule?
Answer: The IC50 was > 100 µM.

Question: And the IC50 (Sup T1 cells)?
Answer: The IC50 was 1.1 ± 0.73 µM.

Question: And the IC50 (HUT-78 cells)?
Answer: The IC50 was 36 ± 13 µM.

Question: And the IC50 ([30]; Homo sapiens, HuT78, range for the seven compounds, MT-4 and HUT-78 cells, read-out: IC50 range, cytostatic activity against MT-4 and HUT-78 cells)?
Answer: The IC50 was 8.5 to 60 µM.

Question: And the IC50 ([30]; range for the seven compounds against the 5 tumor cell lines, read-out: IC50 range, cytostatic activity against CEM, Molt4/C8, Sup T1, MT-2 and C8166 cells)?
Answer: The IC50 was 0.22 to 3.4 µM.
